Read-outs that look alike come from different tables or passages of the source.
Tests used:
[1] = molecular target: T1, CcSHMT1 (Erigeron canadensis, UniProt A0A8M0FGR5); assay: SHMT activity by benzaldehyde production from DL-β-phenylserine; assay type: biochemical; conditions: competitive versus DL-β-phenylserine; CAP 0.63-44.23 μM, assayed 0.5 h after CAP addition
T1 construct: total CDS (1539 bp); homology model is a tetramer
T1 sequence (A0A8M0FGR5 1-513): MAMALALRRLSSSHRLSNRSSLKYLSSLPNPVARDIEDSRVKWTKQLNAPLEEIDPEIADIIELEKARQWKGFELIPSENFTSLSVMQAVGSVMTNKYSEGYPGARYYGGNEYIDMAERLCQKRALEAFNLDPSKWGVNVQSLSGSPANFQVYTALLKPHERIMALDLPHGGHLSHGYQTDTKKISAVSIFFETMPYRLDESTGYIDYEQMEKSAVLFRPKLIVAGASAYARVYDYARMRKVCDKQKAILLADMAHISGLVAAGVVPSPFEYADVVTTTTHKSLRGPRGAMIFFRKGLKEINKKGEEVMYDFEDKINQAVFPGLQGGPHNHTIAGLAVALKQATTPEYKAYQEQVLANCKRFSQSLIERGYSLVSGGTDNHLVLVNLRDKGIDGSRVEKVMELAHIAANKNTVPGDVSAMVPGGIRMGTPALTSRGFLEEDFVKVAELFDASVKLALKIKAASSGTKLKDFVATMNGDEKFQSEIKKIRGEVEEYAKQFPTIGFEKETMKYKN

[2] = molecular target: T1, CcSHMT1; assay: microscale thermophoresis (MST); assay type: binding
[3] = molecular target: T2, CcSHMT1 (Erigeron canadensis, UniProt A0A8M0FGR5, V188L); assay: microscale thermophoresis (MST); assay type: binding
T2 construct: total CDS (1539 bp)
T2 sequence (A0A8M0FGR5 1-513 V188L): T1 sequence (A0A8M0FGR5 1-513)

[4] = molecular target: T3, CcSHMT1 (Erigeron canadensis, UniProt A0A8M0FGR5, A187T); assay: microscale thermophoresis (MST); assay type: binding
T3 construct: total CDS (1539 bp); homology model is a tetramer
T3 sequence (A0A8M0FGR5 1-513 A187T): T1 sequence (A0A8M0FGR5 1-513)

[5] = molecular target: T4, CcSHMT1 (Erigeron canadensis, UniProt A0A8M0FGR5, S186A); assay: microscale thermophoresis (MST); assay type: binding
T4 construct: total CDS (1539 bp)
T4 sequence (A0A8M0FGR5 1-513 S186A): T1 sequence (A0A8M0FGR5 1-513)

Compound | IC50 [1] [µM] | Kd ([2]; read-out: Kd) [µM] | Kd [3] [µM] | Kd [4] [µM] | Kd [5] [µM] | Kd ([2]; negative control, bound is the highest concentration tested, not a printed Kd, read-out: no binding up to 50 μM) [µM]
CCCCCCCC(=O)O [Caprylic acid] | 23.1 | 12.3 | 28 | 51.9 | 15.5 | 
COc1cc(C(=O)O)ccc1O [Vanillic acid, reference compound] |  |  |  |  |  | > 50

From article doi:10.1101/2023.12.12.571245v1, “Serine hydroxymethyl transferase is a binding target of caprylic acid: Uncovering a novel molecular target for a herbicide and for producing caprylic acid-tolerant crops” (biorxiv, 2023)
